Assay results published in US10131666B2, “Heterocyclic morphinan derivatives and use thereof” (Purdue Pharma L.P., priority 2014, dated 2018).

How the values were obtained:
[1] = target: T1, μ-opioid receptor (Homo sapiens, UniProt P35372); assay: μ-opioid receptor [35S]GTPγS functional assay; format: biochemical; conditions: for Emax: maximal effect relative to the effect elicited by DAMGO, HEK-293 cells
T1 construct: host or cells: HEK-293; b235 lists HEK-293, CHO or U-2 OS)
Protocol: [^35S]GTPγS functional assays were conducted using freshly thawed μ-receptor membranes prepared in-house from a cell line expressing recombinant t opioid receptor in a HEK-293, CHO or U-2 OS cell background, or purchased from a commercial source (Perkin Elmer, Shelton, Conn.; or DiscovRx, Fremont, Calif.). Assay reactions were prepared by sequentially adding the following reagents to binding buffer (100 mM NaCl, 10 mM MgCl2, 20 mM HEPES, pH 7.4) on ice (final concentrations indicated): membrane protein (0.026 mg/mL), saponin ([…]), GDP ([…]) and [^35S]GTPγS (0.20 nM; Perkin Elmer, Shelton, Conn.). The prepared membrane solution (190 μl/well) was transferred to 96-shallow well polypropylene plates containing 10 al of 20× concentrated stock solutions of the agonist [D-Ala^2, N-methyl-Phe^4 Gly-ol^5]-enkephalin (DAMGO) prepared in dimethyl sulfoxide (DMSO). Plates were incubated for 30 min at about 25° C. with shaking. Reactions were terminated by rapid filtration onto 96-well Unifilter GF/B filter plates (Perkin Elmer, Shelton, Conn.) using a 96-well tissue harvester (Perkin Elmer, Shelton, Conn.) followed by three filtration washes with 200 μl of ice-cold wash buffer (10 mM NaH2PO4, 10 mM Na2HPO4, pH 7.4). Filter plates were subsequently dried at 50° C. for 2-3 hours. BetaScint scintillation cocktail (Perkin Elmer, Shelton, Conn.) was added (50 μl/well) and plates were counted using a Packard Top-Count for 1 min/well. Data were analyzed using the sigmoidal dose-response curve fitting functions in GraphPad PRISM v. 3.0, or an in-house function for non-linear, sigmoidal dose-response curve-fitting.
μGTP EC50 is the concentration of a compound providing 50% of the maximal response for the compound at a μ-opioid receptor.
μ GTP Emax (%) is the maximal effect elicited by a compound relative to the effect elicited by DAMGO, a standard agonist. Generally, the μ GTP Emax (%) value measures the efficacy of a compound to treat or prevent pain or other Conditions.
(§1) In TABLE 2, activity response of certain Compounds of the Invention to the μ- and κ-opioid receptors was determined as described above for functional assays using HEK-293 cells.

[2] = target: T2, κ-opioid receptor (Homo sapiens, UniProt P41145); assay: κ-opioid receptor radioligand dose displacement binding assay ([3H]-U69,593); parameters: expressed in transfected cells; host or cells: HEK-293 (in-house membrane prep)
Protocol: Membranes from HEK-293 cells, CHO or U-2 OS cells expressing the recombinant human kappa opioid receptor (K) were prepared by lysing cells in ice cold hypotonic buffer (2.5 mM MgCl2, 50 mM HEPES, pH 7.4) (10 mL/10 cm dish) followed by homogenization with a tissue grinder/Teflon pestle. Membranes were collected by centrifugation at 30,000×g for 15 min at 4° C. and pellets were resuspended in hypotonic buffer to a final concentration of 1-3 mg/mL. Protein concentrations were determined using the BioRad protein assay reagent with bovine serum albumen as standard. Aliquots of κ receptor membranes were stored at −80° C.
Radioligand dose displacement assays used 0.4 nM [^3H]-U69,593 (GE Healthcare, Piscataway, N.J.; 40 Ci/mmole) with 15 μg membrane protein (recombinant K opioid receptor expressed in HEK 293 cells; in-house prep) in a final volume of 200 μl binding buffer (5% DMSO, 50 mM Trizma base, pH 7.4). Non-specific binding was determined in the presence of 10 μM unlabeled naloxone or U69,593. All reactions were performed in 96-well polypropylene plates for 1 hour at a temperature of about 25° C. Binding reactions were terminated by rapid filtration onto 96-well Unifilter GF/C filter plates (Perkin Elmer, Shelton, Conn.) presoaked in 0.5% polyethylenimine (Sigma). Harvesting was performed using a 96-well tissue harvester (Perkin Elmer, Shelton, Conn.) followed by five filtration washes with 200 μl ice-cold binding buffer. Filter plates were subsequently dried at 50° C. for 1-2 hours. Fifty μl/well scintillation cocktail (Perkin Elmer, Shelton, Conn.) was added and plates were counted in a Packard Top-Count for 1 min/well.
In TABLE 1, binding affinity of certain Compounds of the Invention to the κ-opioid receptors was determined as described above.

[3] = target: T2, κ-opioid receptor; assay: κ-opioid receptor [35S]GTPγS functional assay; format: biochemical; parameters: expressed in transfected cells; host or cells: HEK-293 (in-house membranes); conditions: for Emax: maximal effect relative to the effect elicited by U69,593, HEK-293 cells
Protocol: Functional [^35S]GTPγS binding assays were conducted as follows. K opioid receptor membrane solution was prepared by sequentially adding final concentrations of 0.026 μg/μl κ membrane protein (in-house), 10 μg/mL saponin, 3 μM GDP and 0.20 nM [^35S]GTPγS to binding buffer (100 mM NaCl, 10 mM MgCl2, 20 mM HEPES, pH 7.4) on ice. The prepared membrane solution (190 μl/well) was transferred to 96-shallow well polypropylene plates containing 10 μl of 20× concentrated stock solutions of agonist prepared in DMSO. Plates were incubated for 30 min at a temperature of about 25° C. with shaking. Reactions were terminated by rapid filtration onto 96-well Unifilter GF/B filter plates (Perkin Elmer, Shelton, Conn.) using a 96-well tissue harvester (Packard) and followed by three filtration washes with 200 μl ice-cold binding buffer (10 mM NaH2PO4, 10 mM Na2HPO4, pH 7.4). Filter plates were subsequently dried at 50° C. for 2-3 hours. Fifty μl/well scintillation cocktail (Perkin Elmer, Shelton, Conn.) was added and plates were counted in a Packard Top-Count for 1 min/well.
κ GTP EC50 is the concentration of a compound providing 50% of the maximal response for the compound at a κ receptor.
κ GTP Emax (%) is the maximal effect elicited by a compound relative to the effect elicited by U69,593.
as §1

T2 sequence (P41145 whole entry): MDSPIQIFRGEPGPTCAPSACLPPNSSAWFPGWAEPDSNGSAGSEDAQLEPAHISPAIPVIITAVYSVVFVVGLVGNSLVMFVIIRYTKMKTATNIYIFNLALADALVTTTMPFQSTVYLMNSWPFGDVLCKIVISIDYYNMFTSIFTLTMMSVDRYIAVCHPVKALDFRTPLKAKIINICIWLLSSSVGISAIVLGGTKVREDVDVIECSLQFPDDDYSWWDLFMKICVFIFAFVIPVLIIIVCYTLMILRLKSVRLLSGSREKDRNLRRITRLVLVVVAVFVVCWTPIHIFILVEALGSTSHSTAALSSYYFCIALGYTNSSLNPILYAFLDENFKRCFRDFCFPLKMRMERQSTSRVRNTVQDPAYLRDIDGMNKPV
T1 sequence (P35372 whole entry, species assumed): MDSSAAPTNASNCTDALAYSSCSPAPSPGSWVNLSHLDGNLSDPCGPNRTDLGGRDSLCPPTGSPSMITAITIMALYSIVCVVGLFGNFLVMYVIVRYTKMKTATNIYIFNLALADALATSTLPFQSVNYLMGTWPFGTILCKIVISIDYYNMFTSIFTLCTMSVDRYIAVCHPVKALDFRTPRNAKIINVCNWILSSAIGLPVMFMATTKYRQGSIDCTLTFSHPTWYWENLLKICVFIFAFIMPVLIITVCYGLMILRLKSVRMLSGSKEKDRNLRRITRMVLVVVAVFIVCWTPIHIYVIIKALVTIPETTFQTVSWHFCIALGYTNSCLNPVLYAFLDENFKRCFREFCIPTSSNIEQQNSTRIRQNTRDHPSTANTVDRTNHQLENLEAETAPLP

COC(=O)c1cc2c([nH]c1=O)C[C@]13CCN(C(=O)OC(C)(C)C)[C@H](Cc4ccc(OC)cc41)[C@]3(O)C2 [Compound 3, 15-(tert-Butyl) 9-methyl (6R,6aS,12aR)-6a-hydroxy-2-methoxy-10-oxo-6,6a,7,10,11,12-hexahydro-5H-6,12a-(epiminoethano)naphtho[2,1-g]quinoline-9,15-dicarboxylate]
EC50 [1]: > 20000 nM
Emax [1]: 0%

COC(=O)c1cc2c([nH]c1=O)C[C@]13CCN[C@H](Cc4ccc(OC)cc41)[C@]3(O)C2 [Compound 4, Methyl (6R,6aS,12aR)-6a-hydroxy-2-methoxy-10-oxo-6,6a,7,10,11,12-hexahydro-5H-6,12a-(epiminoethano)naphtho[2,1-g]quinoline-9-carboxylate]
EC50 [1]: > 20000 nM
Emax [1]: 20 ± 2.08%

NC(=O)c1cc2c([nH]c1=O)C[C@]13CCN[C@H](Cc4ccc(O)cc41)[C@]3(O)C2 [Compound 6]
EC50 [1]: 2900 ± 868 nM
Emax [1]: 23 ± 1%

COc1ccc2c(c1)[C@]13CCN(C)[C@H](C2)[C@@H]1Cc1cc(C(=O)O)c(=O)[nH]c1C3 [Compound 8, (6R,6aR,12aS)-2-methoxy-15-methyl-10-oxo-6,6a,7,10,11,12-hexahydro-5H-6,12a-(epiminoethano)naphtho[2,1-g]quinoline-9-carboxylic acid]
EC50 [1]: 13300 ± 1800 nM
Emax [1]: 40.7 ± 5.04%

CN1CC[C@]23Cc4[nH]c(=O)c(C(=O)NCc5ccccc5)cc4C[C@H]2[C@H]1Cc1ccc(O)cc13 [Compound 11, (6R,6aR,12aS)-N-benzyl-2-hydroxy-15-methyl-10-oxo-6,6a,7,10,11,12-hexahydro-5H-6,12a-(epiminoethano)naphtho[2,1-g]quinoline-9-carboxamide]
EC50 [1]: 332 ± 61.7 nM
Emax [1]: 32.3 ± 0.88%

CN1CC[C@]23Cc4[nH]c(=O)c(C(=O)N5CCCC5)cc4C[C@H]2[C@H]1Cc1ccc(O)cc13 [Compound 12, (6R,6aR,12aS)-2-hydroxy-15-methyl-9-(pyrrolidine-1-carbonyl)-6,6a,7,12-tetrahydro-5H-6,12a-(epiminoethano)naphtho[2,1-g]quinolin-10(11H)-one]
Ki [2]: 14.4 ± 2.81 nM
EC50 [1]: 145 ± 27.9 nM
Emax [1]: 35.3 ± 1.67%
EC50 [3]: 24.2 ± 11.9 nM
Emax [3]: 9.5 ± 0.5%

CN1CC[C@]23Cc4[nH]c(=O)c(C(=O)N[C@@H]5c6ccccc6C[C@@H]5O)cc4C[C@H]2[C@H]1Cc1ccc(O)cc13 [Compound 13, (6R,6aR,12aS)-2-hydroxy-N-((1R,2S)-2-hydroxy-2,3-dihydro-1H-inden-1-yl)-15-methyl-10-oxo-6,6a,7,10,11,12-hexahydro-5H-6,12a-(epiminoethan)naphth[2-g]quinolinone-9-carboxamide]
EC50 [1]: 484 ± 113 nM
Emax [1]: 34 ± 3.21%

CN1CC[C@]23Cc4[nH]c(=O)c(C(=O)N[C@H]5c6ccccc6C[C@H]5O)cc4C[C@H]2[C@H]1Cc1ccc(O)cc13 [Compound 14, (6R,6aR,12aS)-2-hydroxy-N-((1S,2R)-2-hydroxy-2,3-dihydro-1H-inden-yl)-15-methyl-10-oxo-6,6a,7,10,11,12-hexahydro-5H-6,12a-(epiminoethano)naphtho[2,1-g]quinoline-9-carboxamide]
EC50 [1]: 432 ± 135 nM
Emax [1]: 34 ± 2.31%

CN(C(=O)c1cc2c([nH]c1=O)C[C@]13CCN(C)[C@H](Cc4ccc(O)cc41)[C@@H]3C2)C1CCCCC1 [Compound 15, (6R,6aR,12aS)—N-cyclohexyl-2-hydroxy-N,15-dimethyl-10-oxo-6,6a,7,10,11,12-hexahydro-5H-6,12a-(epiminoethano)naphtho[2,1-g]quinoline-9-carboxamide]
EC50 [1]: 289 ± 34.8 nM
Emax [1]: 29.7 ± 3.28%

CN1CC[C@]23Cc4[nH]c(=O)c(C(=O)N5Cc6ccccc6C5)cc4C[C@H]2[C@H]1Cc1ccc(O)cc13 [Compound 16, (6R,6aR,12aS)-2-hydroxy-9-(isoindoline-2-carbonyl)-15-methyl-6,6a,7,12-tetrahydro-5H-6,12a-(epiminoethano)naphtho[2,1-g]quinolin-10(11H)-one]
Ki [2]: 1.41 ± 0.52 nM
EC50 [1]: 40.2 ± 11.5 nM
Emax [1]: 47 ± 2.65%
EC50 [3]: > 20000 nM
Emax [3]: 0%

CN1CC[C@]23Cc4[nH]c(=O)c(C(=O)N5[C@@H]6CC[C@H]5C[C@@H](O)C6)cc4C[C@H]2[C@H]1Cc1ccc(O)cc13 [Compound 17, (6R,6aR,12aS)-2-hydroxy-9-((1R,3R,5S)-3-hydroxy-8-azabicyclo[3.2.1]octane-8-carbonyl)-15-methyl-6,6a,7,12-tetrahydro-5H-6,12a-(epiminoethano)naphtho[2,1-g]quinolin-10(11H)-one]
Ki [2]: 17.7 ± 7.6 nM
EC50 [1]: 240 ± 36.8 nM
Emax [1]: 27.5 ± 2.53%
EC50 [3]: 152 ± 28.8 nM
Emax [3]: 9.74 ± 1.51%

CN1CC[C@]23Cc4[nH]c(=O)c(C(=O)N5CCS(=O)(=O)CC5)cc4C[C@H]2[C@H]1Cc1ccc(O)cc13 [Compound 18, (6R,6aR,12aS)-9-(1,1-dioxidothiomorpholine-4-carbonyl)-2-hydroxy-15-methyl-6,6a,7,12-tetrahydro-5H-6,12a-(epiminoethano)naphtho[2,1-g]quinolin-10(11H)-one]
EC50 [1]: 462 ± 88.4 nM
Emax [1]: 33.2 ± 3.3%

CCn1c2c(cc(C(=O)N3Cc4ccccc4C3)c1=O)C[C@@]1(O)[C@H]3Cc4ccc(O)cc4[C@@]1(CCN3C)C2 [Compound 19, (6R,6aS,12aR)-11-ethyl-2,6a-dihydroxy-9-(isoindoline-2-carbonyl)-15-methyl-6,6a,7,12-tetrahydro-5H-6,12a-(epiminoethano)naphtho[2,1-g]quinolin-10(11H)-one]
EC50 [1]: 288 ± 49.6 nM
Emax [1]: 30.8 ± 2.31%

COc1ccc2c(c1)[C@]13CCN(C(=O)OC(C)(C)C)[C@H](C2)[C@]1(O)Cc1cc(C(=O)O)c(=O)[nH]c1C3 [Compound 20, (6R,6aS,12aR)-15-(tert-butoxycarbonyl)-6a-hydroxy-2-methoxy-10-oxo-6,6a,7,10,11,12-hexahydro-5H-6,12a-(epiminoethano)naphtho[2,1-g]quinoline-9-carboxylic acid]
EC50 [1]: > 20000 nM
Emax [1]: 3%
